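Cultured in 96-well plates, cells were exposed to test compound for 48 hours across five concentrations. At the GI50, growth is halved.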 Activity calls are given as the source filed them. No stated cut-off is given here; in the data, active = GI50 up to about 1.1 µM and inactive = higher.
Key:
Experiment in all cases: NCI-60 cell line screen, 48 h
HOP-62 = system: HOP-62
OVCAR-3 = system: OVCAR-3
SR = system: SR
SF-295 = system: SF-295
K562 = system: K562
CCRF-CEM = system: CCRF-CEM
BT-549 = system: BT-549
M14 = system: M14
UO-31 = system: UO-31
NCI-H460 = system: NCI-H460
MDA-MB-435 = system: MDA-MB-435
HCC 2998 = system: HCC 2998
MCF7 = system: MCF7
HOP-92 = system: HOP-92
TK-10 = system: TK-10
ACHN = system: ACHN
HOP-18 = system: HOP-18
KM-20L2 = system: KM-20L2
DMS-273 = system: DMS-273
DLD-1 = system: DLD-1

Structure (SMILES) | GI50 (HOP-62) | GI50 (OVCAR-3) | GI50 (SR) | GI50 (SF-295) | GI50 (K562) | GI50 (CCRF-CEM) | GI50 (BT-549) | GI50 (M14) | GI50 (UO-31) | GI50 (NCI-H460) | GI50 (MDA-MB-435) | GI50 (HCC 2998) | GI50 (MCF7) | GI50 (HOP-92) | GI50 (TK-10) | GI50 (ACHN) | GI50 (HOP-18) | GI50 (KM-20L2) | GI50 (DMS-273) | GI50 (DLD-1)
c1ccc(/N=C2\S/C(=N\C3CCCCC3)N(C3CCCCC3)\C2=N/c2ccccc2)cc1 | > 100 µM (inactive) | > 100 µM (inactive) | > 100 µM (inactive) | > 100 µM (inactive) | > 100 µM (inactive) | > 100 µM (inactive) | > 100 µM (inactive) | > 100 µM (inactive) | > 100 µM (inactive) | > 100 µM (inactive) | > 100 µM (inactive) | > 100 µM (inactive) | > 100 µM (inactive) |  |  |  |  |  |  | 
CC1OC2=N[C@@H]1C(=O)N[C@@H](Cc1ccccc1)C1=N[C@H](C(=O)N[C@@H](Cc3ccccc3)C3=N[C@H](C(=O)N[C@H]2Cc2ccccc2)C(C)O3)C(C)O1 (stereo partly drawn) | 48.3 µM (inactive) | 28.2 µM (inactive) | 27.9 µM (inactive) | 30.7 µM (inactive) | 26.7 µM (inactive) |  | 40 µM (inactive) | 22.6 µM (inactive) | 31.8 µM (inactive) |  | 28 µM (inactive) | 34.5 µM (inactive) | 45.9 µM (inactive) | 18.9 µM (inactive) | 26.5 µM (inactive) | 31.3 µM (inactive) |  |  |  | 
COc1cc(C2(c3ncc[nH]3)SSSCC2O)ccc1O (stereo not drawn) | > 66.4 µM (inactive) | 32.2 µM (inactive) |  | 39.1 µM (inactive) | 23.4 µM (inactive) | 11.9 µM (inactive) |  |  | 65.9 µM (inactive) | > 46.2 µM (inactive) |  | 27.9 µM (inactive) | 39.6 µM (inactive) | 6.25 µM (inactive) |  |  | > 66.4 µM (inactive) | > 92.5 µM (inactive) | 30.1 µM (inactive) | 58.5 µM (inactive)
COc1ccc(C2C(Cl)C(=O)N2NC(=O)c2ccccc2O)cc1 (stereo not drawn) | > 100 µM (inactive) | > 100 µM (inactive) | > 100 µM (inactive) | > 100 µM (inactive) | > 100 µM (inactive) | > 100 µM (inactive) |  | > 100 µM (inactive) | > 100 µM (inactive) | > 100 µM (inactive) |  |  |  | > 100 µM (inactive) | > 100 µM (inactive) |  |  | > 100 µM (inactive) |  | 
CO/C=C1\OC(=O)C=C1OC |  | > 100 µM (inactive) |  | > 100 µM (inactive) | > 100 µM (inactive) | > 100 µM (inactive) |  |  | > 100 µM (inactive) | > 100 µM (inactive) |  | > 100 µM (inactive) | > 100 µM (inactive) | > 100 µM (inactive) |  |  | > 100 µM (inactive) |  | > 100 µM (inactive) | > 100 µM (inactive)
O=C1C2=C(C3=NCCc4c[nH]c1c43)c1c(Br)cc(Br)cc1CCN2 | 14.6 µM (inactive) | 2.77 µM (inactive) |  | 2.42 µM (inactive) | 2.68 µM (inactive) | 2.58 µM (inactive) |  |  | 6.22 µM (inactive) | 3.03 µM (inactive) |  | 2.01 µM (inactive) | 1.8 µM (inactive) | 9.18 µM (inactive) |  |  | 3.15 µM (inactive) | 2.75 µM (inactive) | 3.12 µM (inactive) | 1.79 µM (inactive)
O=C(O)CNS(=O)(=O)c1ccc(NC(=O)Nc2ccccc2)cc1 | > 100 µM (inactive) | > 100 µM (inactive) |  | > 100 µM (inactive) | > 100 µM (inactive) | > 100 µM (inactive) |  |  | > 100 µM (inactive) | > 100 µM (inactive) |  | > 100 µM (inactive) | > 100 µM (inactive) | > 100 µM (inactive) |  |  | > 100 µM (inactive) | > 100 µM (inactive) | > 100 µM (inactive) | > 100 µM (inactive)
CN(C)CCNC(=O)c1cccc2[nH]c(-c3ccc(Cl)cc3)nc12 | 8.77 µM (inactive) | 10.2 µM (inactive) |  | 8.18 µM (inactive) | 2.93 µM (inactive) | 6.21 µM (inactive) |  |  | 2.69 µM (inactive) | 3.12 µM (inactive) |  | 4.05 µM (inactive) | 3.66 µM (inactive) | 5.25 µM (inactive) |  |  | 14.4 µM (inactive) | 5.14 µM (inactive) | 4.03 µM (inactive) | 4.8 µM (inactive)
Cn1ccnc1C(O)(c1nccn1C)c1nccn1C | > 100 µM (inactive) |  | > 100 µM (inactive) | > 100 µM (inactive) |  |  |  | > 100 µM (inactive) | > 100 µM (inactive) | > 100 µM (inactive) |  | > 100 µM (inactive) |  | > 100 µM (inactive) | > 100 µM (inactive) | > 100 µM (inactive) | 14.1 µM (inactive) |  |  | > 100 µM (inactive)
CC1(C)COC(/C=C/C2=NC(C)(C)CO2)=N1 | 18.9 µM (inactive) | 12.4 µM (inactive) | 4.44 µM (inactive) | 42.2 µM (inactive) | 18.2 µM (inactive) | 7.59 µM (inactive) | 23.1 µM (inactive) | 14.7 µM (inactive) | 18.6 µM (inactive) | 67 µM (inactive) | 23.7 µM (inactive) |  | 15.9 µM (inactive) | 25 µM (inactive) | 11.3 µM (inactive) | 17.4 µM (inactive) |  |  |  | 
COC(=O)C1CCC(=O)N1C(=O)Cc1ccc(OC)cc1 (stereo not drawn) |  | > 100 µM (inactive) |  | > 100 µM (inactive) |  |  |  | > 100 µM (inactive) | > 100 µM (inactive) | > 100 µM (inactive) |  |  |  | > 100 µM (inactive) | > 100 µM (inactive) | > 100 µM (inactive) |  | > 100 µM (inactive) | > 100 µM (inactive) | 
CC1(C)C(=O)c2ccccc2OC1N1CCN(C2Oc3ccccc3C(=O)C2(C)C)CC1 (stereo not drawn) | > 100 µM (inactive) | > 100 µM (inactive) | > 100 µM (inactive) |  | > 100 µM (inactive) | > 100 µM (inactive) | > 100 µM (inactive) | > 100 µM (inactive) | > 100 µM (inactive) | > 100 µM (inactive) | > 100 µM (inactive) | > 100 µM (inactive) | > 100 µM (inactive) | > 100 µM (inactive) | > 100 µM (inactive) | > 100 µM (inactive) |  |  |  | 
Cc1c2cc[n+](Cc3ccc(I)cc3)cc2c(C)c2c1[nH]c1ccccc12 | 0.778 µM (active) | 0.791 µM (active) |  | 0.296 µM (active) | 0.643 µM (active) | 0.448 µM (active) |  |  | 3.14 µM (inactive) | 0.281 µM (active) |  | 0.881 µM (active) | 0.783 µM (active) | 0.56 µM (active) |  |  | 1 µM (active) | 0.748 µM (active) | 0.506 µM (active) | 0.94 µM (active)
COc1ccc(C(=O)Cc2ccc(Cl)cc2)cc1OC | > 100 µM (inactive) | > 100 µM (inactive) | > 100 µM (inactive) | > 100 µM (inactive) | > 100 µM (inactive) | > 100 µM (inactive) |  | > 100 µM (inactive) | > 100 µM (inactive) | > 100 µM (inactive) |  | > 100 µM (inactive) |  |  | > 100 µM (inactive) | > 100 µM (inactive) | > 100 µM (inactive) | > 100 µM (inactive) | > 100 µM (inactive) | > 100 µM (inactive)
CC(C)C1NC(=O)CC(c2ccccc2)N(N=O)C1c1ccccc1 (stereo not drawn) | > 100 µM (inactive) | > 68.9 µM (inactive) |  | > 100 µM (inactive) | 71.4 µM (inactive) | > 100 µM (inactive) |  |  | > 100 µM (inactive) | > 100 µM (inactive) |  | > 100 µM (inactive) | > 100 µM (inactive) | > 51.3 µM (inactive) |  |  | > 100 µM (inactive) | > 100 µM (inactive) | > 100 µM (inactive) | > 100 µM (inactive)
CC(=O)NNc1nc(C)c(C(=O)NNC(=O)C(=O)Nc2cccc(C(C)=O)c2)s1 | 25.3 µM (inactive) |  | 18 µM (inactive) | 31.4 µM (inactive) | 32.1 µM (inactive) | 23.2 µM (inactive) |  |  | 17.1 µM (inactive) | 12.7 µM (inactive) |  | 17.3 µM (inactive) |  | 13.4 µM (inactive) | 16.9 µM (inactive) | 16.9 µM (inactive) |  | 59 µM (inactive) | 34.8 µM (inactive) | 28.1 µM (inactive)
COc1cc(C2c3cc4c(cc3OC3(O)COC(=O)C23)OCO4)cc(OC)c1OC (stereo not drawn) | 62.7 µM (inactive) | 33 µM (inactive) | 16.7 µM (inactive) | 26.9 µM (inactive) | 42.3 µM (inactive) | 34.7 µM (inactive) |  | 34.7 µM (inactive) | 34.7 µM (inactive) | 56.2 µM (inactive) |  | 70 µM (inactive) |  |  | 51.3 µM (inactive) | 53 µM (inactive) | > 100 µM (inactive) | 24.3 µM (inactive) | 36.5 µM (inactive) | 45.9 µM (inactive)
COC(=O)c1c(O)ccc2c1c1c(n2Cc2cccc(C)c2)C(=O)c2ccccc2C1 | 10.4 µM (inactive) | 12.6 µM (inactive) | 13.7 µM (inactive) | 24.9 µM (inactive) | 29.4 µM (inactive) | 12.4 µM (inactive) | 26.5 µM (inactive) | 14.5 µM (inactive) | > 75 µM (inactive) | 19.4 µM (inactive) | 11.4 µM (inactive) |  | 27.9 µM (inactive) | 42.6 µM (inactive) | 22 µM (inactive) | 21.1 µM (inactive) |  |  |  | 
